Experiments:
[1] = test system: Male NMRI mice; experiment: Mouse tetrad model (in-vivo bioassay for cannabinoid activity: hot plate, hypothermia, catalepsy, sedation); conditions: 5 mg/kg i.v.
Text: II. In-vivo bioassay system for determination of cannabinoid activity
Substances with affinity for cannabinoid receptors are known to produce a wide range of pharmacological effects. It is also known that intravenous administration of a substance with affinity for cannabinoid receptors in mice produces analgesia , hypothermia, sedation and catalepsy. Individually, none of these effects can be considered as proof that a tested substance has affinity for cannabinoid-receptors, since all of these effects are common for various classes of centrally active agents. However, substances, which show all of these effects, i.e. substances that are active in this so-called tetrad model are considered to have affinity for the cannabinoid receptors. It has further been shown that cannabinoid receptor antagonists are higly effective in blocking the effects of a cannabinoid agonist in the mouse tetrad model.
The tetrad model is described, for example, in the publication of A. C. Howlett et al, International Union of Pharmacology XXVII. Classification of Cannabinoid Receptors, Pharmacol Rev 54, 161-202 , 2002 and David R. Compton et al., "In-vivo Characterization of a Specific Cannabinoid Receptor Antagonist (SR141716A) :Inhibition of Tetrahydrocannbinol- induced Responses and Apparent Agonist Activity", J. Pharmacol. Exp. Ther. 277 , 2, 586-594, 1996. […]
Before testing in the behavioral procedures given below, mice are acclimatized to the experimental setting. Pre-Treatment control values are determined for analgesia hot plate latency (in seconds), rectal temperature, sedation and catalepsy.
In order to determine the agonistic activty of the substance to be tested, the mice are injected intravenously with the substance to be tested or the vehicle alone. 15 minutes after injection, latency in hot plate analgesia is measured.
Rectal temperature, sedation and catalepsy are measured 20 minutes after injection.
In order to determine the antagonistic activity the identical procedure is used as for the determination of the agonistic effects, but with the difference that the substance to be evaluated for its antagonistic activity is injectected 5 minutes before the intravenous injection of 1.25 mg/kg Win-55,212 a known cannabinoid-receptor agonist.
The hot plate analgesia is determined according to the method described in Woolfe D. et al. "The evaluation of analgesic action of pethidine hydrochloride (Demerol)", J. Pharmacol. Exp. Ther. 80, 300-307,1944.
The mice are placed on a hot plate (Harvard Analgesimeter) at 55 ± 0.5 °C until they show a painful sensation by licking their paws or jumping and the time for these sensations to occur is recorded. This reading is considered the basal value (B). […]
The degree of analgesia is calculated from the formula : […]

[2] = biological target: Herg channel (Homo sapiens, UniProt Q12809); experiment: Herg channel affinity; assay type: binding; conditions: general statement, no method or data given
Sequence of Herg channel (Q12809 whole entry): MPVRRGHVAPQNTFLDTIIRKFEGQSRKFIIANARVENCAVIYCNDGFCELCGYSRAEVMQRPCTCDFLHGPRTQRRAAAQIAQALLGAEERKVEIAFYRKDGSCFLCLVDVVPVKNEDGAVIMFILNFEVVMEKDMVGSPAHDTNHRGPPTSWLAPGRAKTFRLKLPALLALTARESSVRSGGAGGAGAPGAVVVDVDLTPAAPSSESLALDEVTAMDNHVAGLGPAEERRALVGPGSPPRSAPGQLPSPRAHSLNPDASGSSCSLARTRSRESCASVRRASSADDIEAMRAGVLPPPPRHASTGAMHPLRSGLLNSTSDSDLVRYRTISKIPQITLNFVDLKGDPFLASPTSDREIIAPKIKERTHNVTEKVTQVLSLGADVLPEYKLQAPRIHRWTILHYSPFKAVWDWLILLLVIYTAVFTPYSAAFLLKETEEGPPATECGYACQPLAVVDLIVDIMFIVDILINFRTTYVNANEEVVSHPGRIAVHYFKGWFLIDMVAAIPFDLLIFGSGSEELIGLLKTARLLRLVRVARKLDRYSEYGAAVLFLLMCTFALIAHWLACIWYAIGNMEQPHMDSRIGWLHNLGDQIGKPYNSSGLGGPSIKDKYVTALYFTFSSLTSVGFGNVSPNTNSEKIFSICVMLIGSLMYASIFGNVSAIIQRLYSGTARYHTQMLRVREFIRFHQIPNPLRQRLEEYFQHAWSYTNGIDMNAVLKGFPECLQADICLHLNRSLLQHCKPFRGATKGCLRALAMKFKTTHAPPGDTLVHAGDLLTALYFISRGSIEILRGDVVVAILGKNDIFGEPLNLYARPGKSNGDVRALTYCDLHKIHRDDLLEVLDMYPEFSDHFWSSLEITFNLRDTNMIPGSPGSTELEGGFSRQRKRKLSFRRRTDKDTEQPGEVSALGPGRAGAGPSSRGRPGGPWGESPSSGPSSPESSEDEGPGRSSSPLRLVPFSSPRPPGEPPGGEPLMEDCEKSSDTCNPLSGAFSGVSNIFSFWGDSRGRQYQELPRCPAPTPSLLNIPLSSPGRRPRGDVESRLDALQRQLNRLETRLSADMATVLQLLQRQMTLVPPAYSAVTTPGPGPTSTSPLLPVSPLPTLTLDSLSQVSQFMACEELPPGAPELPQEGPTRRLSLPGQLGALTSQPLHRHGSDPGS

SMILES	Agonistic effect A: Hot-Plate test [1]	Agonistic effect B: Hypothermia [1]	Agonistic effect C: Catalepsy [1]	Agonistic effect D: Sedation [1]	Herg channel affinity [2]
O=C(NN1CCCCC1)C1=NN(c2ccc(Cl)cc2Cl)C(c2ccc(Cl)cc2)C1 (centres unmarked) [Example 1, N-piperidinyl-5-(4-chlorophenyl)-1-(2,4-dichlorophenyl)-4,5-dihydro-1H-pyrazole-3-carboxamide]	0	0	0	0	
O=C(NN1CCCCC1)C1=NN(c2ccc(Cl)cc2Cl)C(c2ccc(Cl)cc2)C1 (stereo not drawn) [β-Polymorph, β-Polymorph of N-piperidinyl-5-(4-chlorophenyl)-1-(2,4-dichlorophenyl)-4,5-dihydro-1H-pyrazole-3-carboxamide]					relatively weak

— EP1757588A1, “Polymorph of N-Piperidinyl-5-(4-chlorophenyl)-1-(2,4-dichlorophenyl)-4,5-dihydro-1H-pyrazole-3-carboxamide and its use as a cannabinoid receptor modulator” (LABORATORIOS DEL DR. ESTEVE, S.A., priority 2005, dated 2007)
